Data set [1] can be described thus: Stability in simulated gastro-intestinal conditions (dissolution test, gastric and intestinal phase). Type of data set: physicochemical. As to conditions: gastric phase pH 2 with pepsin in first 2 hours. The protocol:
To study the stability of the colloidal dispersion of particles according to the invention in simulated gastro-intestinal conditions, a dissolution test was carried out in simulated gastric and intestinal phases using following conditions. This test indicates whether the particles are suitable to be used as a delivery system for phenolic compounds to the human body. Zein-curcumin particles (5:1 wt/wt) were used. • For gastric phase: Water with 0.05% Tween , pH 2 in first 2 hours with pepsin • For intestinal phase: pH adjusted to 6.8 and bile salts and pancreatin added to the medium. • Sampling point: (5, 15, 30, 60, 90, 120 and 180 mins).

Data set [2] can be described thus: pH stability in buffers. The class given is physicochemical. As to conditions: for non-degraded: after 6 hours, 20 microgram per mL curcumin. An excerpt: (§1) Enhanced stability of colloidal dispersion of curcumin-zein to various pH and UV irradiation was studied as follows.
The nature of data set [3]: Water dispersibility, USP 2 dissolution test. Type of data set: physicochemical. As to conditions: deionised water with 0.05% Tween 80. The protocol:
The aim of the experiment is to see how well formulated curcumin disperses in aqueous media. […] Curcumin determined included both free as well as complexed or encapsulated curcumin. […] Samples were withdrawn at specified time interval (5, 15, 30, 60, 90, 120 and 180 mins) and analysed using UV-vis spectroscopic method.

A short description of data set [4]: Photostability under UV irradiation. The class given is physicochemical. The settings on record: UV irradiation 302 nm.
Description: as §1

Data set [5] deals with acetylated LDL metabolism. As to conditions: Whitman S.C. et al. 2005; cited from earlier work.

SMILES strings stand for the structures.

As to `COc1cc(/C=C/C(=O)CC(=O)/C=C/c2ccc(O)c(OC)c2)ccc1O` [pure curcumin, Curcumin], the release is reported as 0% in data set [1] (0 min, then intestinal phase pH 6.8 with bile salts and pancreatin); 18.0 ± 2.0% in data set [1] (5 min, then intestinal phase pH 6.8); 18.3 ± 0.3% in data set [1] (15 min, then intestinal phase pH 6.8); 20.9 ± 2.2% in data set [1] (30 min, then intestinal phase pH 6.8); 21.7 ± 1.9% in data set [1] (60 min, then intestinal phase pH 6.8); 38.1 ± 0.5% in data set [1] (90 min, then intestinal phase pH 6.8). Moreover, the release was 36.9 ± 1.4% in data set [1] (120 min, then intestinal phase pH 6.8); 37.6 ± 2.3% in data set [1] (150 min, then intestinal phase pH 6.8); 37.0 ± 1.2% in data set [1] (180 min, then intestinal phase pH 6.8). The non-degraded in data set [2] (pH 1.2) turned out to be 56.0%; in data set [2] (pH 4.5), 69.7%; in data set [2] (pH 6.7) it was 67.6%; in data set [2] (pH 7.4) it was 66.6%; in data set [2] (pH 9.0) it was 52.9%. Also, in data set [2] (pH 9.0), the colour result was “turned red in colour”. Moreover, the cumulative release in data set [3] (0 min) is 0%; in data set [3] (15 min), 18.1 ± 1.3%; in data set [3] (30 min) it was 19.1 ± 1.4%; in data set [3] (60 min), 22.6 ± 1.7%; in data set [3] (90 min), 25.7 ± 1.9%; in data set [3] (120 min), 27.8 ± 2.0%. In addition, in data set [3] (180 min), the cumulative release amounted to 32.8 ± 2.7%. In addition, the unchanged curcumin level in data set [4] (0 min) came to 100%; in data set [4] (5 min), 93.6%; in data set [4] (10 min) it was 88.4%; in data set [4] (15 min), 66.7%; in data set [4] (30 min) it was 59.6%.

For the molecule `COc1ccc(-c2cc(=O)c3c(OC)c(OC)c(OC)c(OC)c3o2)cc1OC` [nobiletin], the “inhibited acetylated LDL metabolism” value in data set [5] was 50-72%.

The values above are taken from patent EP2587940B1, “PARTICLES COMPRISING HYDROPHOBIC POLYMER AND HYDROPHOBIC PHENOLIC COMPOUND” (Unilever N.V., priority 2010, dated 2012).
